Patent publication US10472356B2, “Bicyclic ketone sulfonamide compounds” (AMGEN INC., priority 2015, dated 2019)

Tests used:
human Nav1.7 [1] = biological target: T1, human Nav1.7 (Homo sapiens, UniProt Q15858); assay: Nav 1.7 IWB In Vitro Assay (IonWorks Barracuda); assay type: cell-based; conditions: HEK293 cells stably transfected with human Nav 1.7; IonWorks Barracuda population patch-clamp; cells clamped to −20 mV for 4 minutes with compound; 26th pulse; read-out: hNav1.7 IWB IC50
T1 construct: expressed in transfected cells; host or cells: HEK293
T1 sequence (Q15858 whole entry): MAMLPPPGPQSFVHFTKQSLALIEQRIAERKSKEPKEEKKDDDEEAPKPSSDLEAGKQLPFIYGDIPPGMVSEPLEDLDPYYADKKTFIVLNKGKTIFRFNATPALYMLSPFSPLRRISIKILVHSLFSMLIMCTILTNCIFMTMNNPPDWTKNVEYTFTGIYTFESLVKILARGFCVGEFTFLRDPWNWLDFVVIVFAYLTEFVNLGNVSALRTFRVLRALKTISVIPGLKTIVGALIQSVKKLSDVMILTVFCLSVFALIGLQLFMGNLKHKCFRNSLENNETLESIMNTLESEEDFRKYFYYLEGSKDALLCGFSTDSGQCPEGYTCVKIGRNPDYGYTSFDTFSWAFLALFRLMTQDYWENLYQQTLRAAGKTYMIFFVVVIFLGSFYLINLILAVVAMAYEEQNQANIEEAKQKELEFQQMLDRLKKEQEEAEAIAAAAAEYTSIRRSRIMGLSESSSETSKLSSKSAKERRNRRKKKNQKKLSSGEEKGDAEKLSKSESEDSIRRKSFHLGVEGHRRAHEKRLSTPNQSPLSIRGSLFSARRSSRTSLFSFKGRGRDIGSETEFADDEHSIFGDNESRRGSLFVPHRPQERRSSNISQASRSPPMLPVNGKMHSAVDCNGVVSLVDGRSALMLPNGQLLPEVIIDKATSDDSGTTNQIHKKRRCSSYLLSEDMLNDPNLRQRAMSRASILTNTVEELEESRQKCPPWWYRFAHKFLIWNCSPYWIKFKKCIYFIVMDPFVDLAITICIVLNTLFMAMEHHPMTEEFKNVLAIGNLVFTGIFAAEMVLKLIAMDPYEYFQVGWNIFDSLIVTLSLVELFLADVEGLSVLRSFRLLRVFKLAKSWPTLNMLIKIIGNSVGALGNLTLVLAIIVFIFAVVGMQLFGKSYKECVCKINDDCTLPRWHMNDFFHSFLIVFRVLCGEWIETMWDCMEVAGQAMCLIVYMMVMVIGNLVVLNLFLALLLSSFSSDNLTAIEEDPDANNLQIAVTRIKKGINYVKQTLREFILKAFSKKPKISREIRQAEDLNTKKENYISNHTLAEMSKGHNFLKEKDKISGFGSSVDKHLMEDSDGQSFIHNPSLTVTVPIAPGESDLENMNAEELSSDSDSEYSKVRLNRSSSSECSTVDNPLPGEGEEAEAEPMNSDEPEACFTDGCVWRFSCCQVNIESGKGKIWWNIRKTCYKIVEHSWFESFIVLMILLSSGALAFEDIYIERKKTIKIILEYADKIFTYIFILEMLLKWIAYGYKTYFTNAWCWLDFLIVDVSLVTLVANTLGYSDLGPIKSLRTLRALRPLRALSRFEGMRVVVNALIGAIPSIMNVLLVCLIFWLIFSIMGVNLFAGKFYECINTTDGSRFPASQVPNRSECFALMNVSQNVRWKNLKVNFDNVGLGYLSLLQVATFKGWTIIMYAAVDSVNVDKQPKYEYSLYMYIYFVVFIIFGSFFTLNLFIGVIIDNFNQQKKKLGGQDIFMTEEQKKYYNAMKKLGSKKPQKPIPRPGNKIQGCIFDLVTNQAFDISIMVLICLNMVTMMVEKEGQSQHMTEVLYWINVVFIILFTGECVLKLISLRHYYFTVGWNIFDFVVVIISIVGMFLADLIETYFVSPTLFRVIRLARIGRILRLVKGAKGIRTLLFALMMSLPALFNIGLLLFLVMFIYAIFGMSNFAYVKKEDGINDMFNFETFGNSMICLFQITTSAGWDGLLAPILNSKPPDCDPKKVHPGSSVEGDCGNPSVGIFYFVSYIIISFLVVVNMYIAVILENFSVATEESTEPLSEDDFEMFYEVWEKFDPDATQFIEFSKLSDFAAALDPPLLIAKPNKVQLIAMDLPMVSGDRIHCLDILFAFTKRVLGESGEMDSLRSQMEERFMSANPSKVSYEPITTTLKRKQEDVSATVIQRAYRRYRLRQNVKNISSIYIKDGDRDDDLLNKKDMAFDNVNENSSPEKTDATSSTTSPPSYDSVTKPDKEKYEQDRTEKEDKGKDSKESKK
Method: Nav 1.7 IWB In Vitro Assay
HEK293 cells stably transfected with human Nav 1.7 were recorded in population patch-clamp mode with the IonWorks© Barracuda (IWB) automated electrophysiology system (Molecular Devices, LLC, Sunnyvale, Calif.). From a holding potential of −110 mV, sodium currents were elicited by a train of 26 depolarizations of 150 ms duration to −20 mV at a frequency of 5 Hz. Cells were then clamped to −20 mV for a period of 4 minutes in the presence of a single concentration of test compound. Following this compound incubation period, cells were clamped to −110 mV for three seconds to recover unbound channels and put through the same 26 pulse voltage protocol as above. Peak inward current during the 26th pulse to −20 mV in the presence of compound was divided by the peak inward current evoked by the 26th pulse to −20 mV in the absence of compound to determine percent inhibition. Concentration-response curves of percent inhibition as a function of concentration were generated to calculate IC50 values.

human Nav1.7 [2] = biological target: T1, human Nav1.7; assay: Nav 1.7 In Vitro PatchXpress (PX) Assay; assay type: cell-based; conditions: HEK 293 cells stably transfected with human Nav1.7; PatchXpress whole cell voltage clamp; partially inactivated state (holding potential yielding 20 to 50% inactivation); read-out: hNav1.7 PX IC50
Method: Nav 1.7 In Vitro PatchXpress (PX) Assay
HEK 293 cells stably transfected with human Nav1.7 were recorded in whole cell voltage clamp mode with the PatchXpress automated electrophysiology system (Molecular Devices, LLC, Sunnyvale, Calif.). Compound effects were measured on a partially inactivated state of the sodium channel. Cells were clamped to a holding potential yielding 20 to 50% inactivation. To elicit sodium current, channels were activated by pulsing to −10 mV for 20 msec. This voltage protocol was repeated at a rate of 0.1 Hz throughout the experiment. A single concentration of test compound was applied to cells for a duration of 3 minutes. Peak sodium current was measured at the end of the compound addition period to determine percent inhibition. Three to five cells were tested per concentration, and IC50 curves were fitted to percent inhibition as a function of concentration.

Compound	IC50 (human Nav1.7 [1]) [nM]	IC50 (human Nav1.7 [2]) [nM]
COc1cc(-c2cc(F)cc(F)c2)c(F)cc1-n1c2c(ccc1=O)CN(S(=O)(=O)Nc1ncon1)CC2 (racemic) [Example 17-(Rac), (Rac)-N-1,2,4-oxadiazol-3-yl-2-oxo-1-(2,3′,5′-trifluoro-5-methoxy-4-biphenylyl)-1,5,7,8-tetrahydro-1,6-naphthyridine-6(2H)-sulfonamide]	191	1120
COc1cc(-c2ccc(F)c(F)c2)c(F)cc1-n1c2c(ccc1=O)CN(S(=O)(=O)Nc1ncccn1)CC2 (racemic) [Example 28-(Rac), (Rac)-2-oxo-N-2-pyrimidinyl-1-(2,3′,4′-trifluoro-5-methoxy-4-biphenylyl)-1,5,7,8-tetrahydro-1,6-naphthyridine-6(2H)-sulfonamide]	199	1680
COc1cc(-c2ccc(F)c(C)c2)c(F)cc1-n1c2c(ccc1=O)CN(S(=O)(=O)Nc1ncccn1)CC2 (racemic) [Example 29-(Rac), (Rac)-1-(2,4′-difluoro-5-methoxy-3′-methyl-4-biphenylyl)-2-oxo-N-2-pyrimidinyl-1,5,7,8-tetrahydro-1,6-naphthyridine-6(2H)-sulfonamide]	122	1170
COc1cc(-c2ccc(Cl)c(C)c2)c(F)cc1-n1c2c(ccc1=O)CN(S(=O)(=O)Nc1ncccn1)CC2 (racemic) [Example 30, (Rac)-1-(4′-chloro-2-fluoro-5-methoxy-3′-methyl-4-biphenylyl)-2-oxo-N-2-pyrimidinyl-1,5,7,8-tetrahydro-1,6-naphthyridine-6(2H)-sulfonamide]	44.3	993
COc1nc(-c2cc(F)cc(Cl)c2)c(F)cc1-n1c2c(ccc1=O)CN(S(=O)(=O)Nc1ccon1)CC2 (racemic) [Example 36, (Rac)-1-(6-(3-chloro-5-fluorophenyl)-5-fluoro-2-methoxy-3-pyridinyl)-N-3-isoxazolyl-2-oxo-1,5,7,8-tetrahydro-1,6-naphthyridine-6(2H)-sulfonamide]	173	423
COc1cc(-c2ccc(Cl)c(C)c2)c(F)cc1-n1c2c(ccc1=O)CN(S(=O)(=O)Nc1cc(C)ncn1)CC2 (racemic) [Example 40, (Rac)-1-(4′-chloro-2-fluoro-5-methoxy-3′-methyl-4-biphenylyl)-N-(6-methyl-4-pyrimidinyl)-2-oxo-1,5,7,8-tetrahydro-1,6-naphthyridine-6(2H)-sulfonamide]	42.3	204
COc1cc(-c2cccc(C(F)(F)F)c2)c(Cl)cc1-n1c2c(ccc1=O)CN(S(=O)(=O)Nc1cccnn1)CC2 (racemic) [Example 91-(Rac), (Rac)-1-(2-chloro-5-methoxy-3′-(trifluoromethyl)-[1,1′-biphenyl]-4-yl)-2-oxo-N-(pyridazin-3-yl)-1,2,7,8-tetrahydro-1,6-naphthyridine-6(5H)-sulfonamide]	11.2	29.9
COc1cc(-c2ccc(F)c(C)c2)c(Cl)cc1-n1c2c(ccc1=O)CN(S(=O)(=O)Nc1cccnn1)CC2 (racemic) [Example 92-(Rac), (Rac)-1-(2-chloro-4′-fluoro-5-methoxy-3′-methyl-[1,1′-biphenyl]-4-yl)-2-oxo-N-(pyridazin-3-yl)-1,2,7,8-tetrahydro-1,6-naphthyridine-6(5H)-sulfonamide]	23.6	63.5
COc1cc(-c2cc(F)cc(F)c2)c(F)cc1-n1c2c(ccc1=O)[C@@H](C)N(S(=O)(=O)Nc1ccon1)CC2 (single isomer, unassigned) [Example 3-A-M]	2800	> 1000
COc1cc(-c2cc(F)cc(F)c2)c(F)cc1-n1c2c(ccc1=O)CN(S(=O)(=O)Nc1ccon1)[C@@H](C)C2 (single isomer, unassigned) [Example 3-C-M]	8520	> 1000
COc1cc(-c2cc(F)cc(F)c2)c(F)cc1-n1c2c(ccc1=O)CN(S(=O)(=O)Nc1ccon1)[C@@H](C)C2 (single isomer, unassigned) [Example 3-C-P]	> 30000	> 1000
COc1cc(-c2cc(F)cc(Cl)c2)ccc1-n1c2c(ccc1=O)CN(S(=O)(=O)Nc1cccnn1)CC2 (single isomer, unassigned) [Example 8-P, P-1-(3′-chloro-5′-fluoro-3-methoxy-4-biphenylyl)-2-oxo-N-3-pyridazinyl-1,5,7,8-tetrahydro-1,6-naphthyridine-6(2H)-sulfonamide]	25.9	241
COc1cc(-c2cc(Cl)ccc2C)c(F)cc1-n1c2c(ccc1=O)CN(S(=O)(=O)Nc1ccon1)CC2 (single isomer, unassigned) [Example 9-M, M-1-(5′-chloro-2-fluoro-5-methoxy-2′-methyl-4-biphenylyl)-N-3-isoxazolyl-2-oxo-1,5,7,8-tetrahydro-1,6-naphthyridine-6(2H)-sulfonamide]	55	772
COc1cc(-c2cc(F)cc(F)c2)c(F)cc1-n1c2c(ccc1=O)CN(S(=O)(=O)Nc1ncc(F)cn1)CC2 (single isomer, unassigned) [Example 10-M, M-N-(5-fluoro-2-pyrimidinyl)-2-oxo-1-(2,3′,5′-trifluoro-5-methoxy-4-biphenylyl)-1,5,7,8-tetrahydro-1,6-naphthyridine-6(2H)-sulfonamide]	102	612
COc1cc(-c2cc(F)cc(F)c2)c(F)cc1-n1c2c(ccc1=O)CN(S(=O)(=O)Nc1ncc(F)cn1)CC2 (single isomer, unassigned) [Example 10-P, P-N-(5-fluoro-2-pyrimidinyl)-2-oxo-1-(2,3′,5′-trifluoro-5-methoxy-4-biphenylyl)-1,5,7,8-tetrahydro-1,6-naphthyridine-6(2H)-sulfonamide]	52.9	644
COc1cc(-c2cc(F)cc(Cl)c2)c(F)cc1-n1c2c(ccc1=O)CN(S(=O)(=O)Nc1ccccn1)CC2 (single isomer, unassigned) [Example 11-M, M-1-(3′-chloro-2,5′-difluoro-5-methoxy-4-biphenylyl)-2-oxo-N-2-pyridinyl-1,5,7,8-tetrahydro-1,6-naphthyridine-6(2H)-sulfonamide]	849	4500
COc1cc(-c2cc(F)cc(Cl)c2)c(F)cc1-n1c2c(ccc1=O)CN(S(=O)(=O)Nc1cccc(F)n1)CC2 (single isomer, unassigned) [Example 13-M, M-1-(3′-chloro-2,5′-difluoro-5-methoxy-4-biphenylyl)-N-(6-fluoro-2-pyridinyl)-2-oxo-1,5,7,8-tetrahydro-1,6-naphthyridine-6(2H)-sulfonamide]	983	7550
COc1cc(-c2cc(F)cc(F)c2)c(F)cc1-n1c2c(ccc1=O)CN(S(=O)(=O)Nc1ncon1)CC2 (single isomer, unassigned) [Example 17-M, M-N-1,2,4-oxadiazol-3-yl-2-oxo-1-(2,3′,5′-trifluoro-5-methoxy-4-biphenylyl)-1,5,7,8-tetrahydro-1,6-naphthyridine-6(2H)-sulfonamide]	34.3	292
COc1cc(-c2cc(F)cc(Cl)c2)c(F)cc1-n1c2c(ccc1=O)CN(S(=O)(=O)Nc1ccon1)CC2 (single isomer, unassigned) [Example 18-M, M-1-(3′-chloro-2,5′-difluoro-5-methoxy-4-biphenylyl)-N-3-isoxazolyl-2-oxo-1,5,7,8-tetrahydro-1,6-naphthyridine-6(2H)-sulfonamide]	567	3560
